Entries after “also recorded” stand apart in the source; their conditions may differ. Where a name gives a salt, the structure may show the parent alone. Read-outs that look alike come from different tables or passages of the source. Peptide text beside a SMILES is read from it.
What was measured:
Assay type in all cases: cell-based
[1] = tested on: primary human fibroblasts
Procedure: FIG. 6. Primary confluent fibroblasts were infected with AV.GFP3ori virus at an MOI=1000 particles/cell following treatment with brefeldin A (10 μg/ml), vinblastine (22 μM), cytochalasin B (1 μM), NH4Cl (2 mM), chloroquine (20 μm), LLnL (400 μM), and Z-LLL (4 μM), final concentration indicated in brackets. Cells were harvested at 96 hours post-infection and the transduction efficiency was compared to untreated rAAV infected cells by FACS analysis for GFP expression. To control for non-specific effects caused by toxicity of the compounds, the percentage of live cells was also assessed by the absence of propidium iodide incorporation.
80% confluent human primary fibroblasts were infected with AV.GFP3ori at an moi of 1000 DNA particles/cell. FIG. 16A depicts GFP transgene expression in the absence (left photographs) and presence of 40 μM LLnL (right photographs) at 96 hours post-infection. […] Top and bottom panels represent bright field and FITC-channel fluorescent photomicrographs, respectively. The mean (+/−SEM, N=3) percentage of cells transduced with rAAV, as measured by FACS sorting of GFP expressing cells, is presented in the bar graph of FIG. 16B. […] In this study, rAAV from infected cells was first immunoprecipitated with anti-VP1,2,3 (AAV-2 capsid) monoclonal antibody followed by Western blot detection of ubiquitin side chains using an anti-ubiquitin monoclonal antibody. […] Epithelia were infected with AV.GFP3ori (10,000 particles/cell) from the basolateral surface following treatment with ubiquitin ligase inhibitor dipeptides (0.2 mM H-Leu-Ala-OH and 0.2 mM H-His-Ala-OH).
Initial studies were performed in confluent primary human fibroblasts since dose titrations and toxicity could be quickly assessed. Selected compounds were used to treat fibroblast monolayers prior to rAAV infection. rAAV transduction was assessed at 96 hours post-infection by FACS analysis, and the percentage of dead cells was simultaneously assessed by incorporation of propidium iodide.
These tripeptides are structurally related to chloroquine but have different lipid solubility and specificity for cysteine proteases (Seglen, 1983). These molecules decrease endosomal degradation of molecules by a mechanism different than altering pH.
Transduction of polarized airway epithelial cells and primary human fibroblasts. rAAV infection of fully differentiated bronchial cells was performed as described in Duan et al. (1998). For infections from the apical surface of the airway cells, 5 μl rAAV was mixed with 50 μl of culture media and applied directly onto the apical compartment of Millicell inserts (MOI=10,000 particles/cell). During apical infection, the basolateral side of the Millicell was continuously bathed in culture media. Gene transfer to the basal side was performed by inverting Millicell inserts and applying viral vector to the bottom of the supporting filter membrane in a 50 μl volume for 2 hours. Subsequently, Millicell inserts were returned to the upright position, in the continued presence of the original viral inoculum plus an additional 450 μl of media. For both apical and basolateral infections, rAAV containing media was removed after 24 hours and replaced with either fresh culture media (for the basal side) or exposed to air (for the apical side). To test the effect of different agents on the efficiency of AAV transduction in polarized airway cells, 1 μl of each solution was mixed with AAV prior to infection of airway epithelia. Agents were usually presented during the 24 hours AAV infection period unless indicated otherwise.

[2] = tested on: human bronchial epithelia; test: Southern blot of Hirt DNA for rAAV genomes in polarized airway epithelia; settings: hypotonic EGTA treatment alone, apical infection
Procedure: FIGS. 15A–C. Examination of rAAV endocytosis by Southern blot analysis of viral DNA. Hirt DNA from AV.GFP3ori infected or mock infected (Lanes 1 and 7 in both FIGS. 15A and 15B) human bronchial epithelia were extracted for a direct examination of viral genomes by Southern blotting against a P^32-labeled EGFP probe. FIG. 15A depicts viral binding studies in the presence and absence of LLnL with or without EGTA treatment prior to apical or basolateral infection for 1 hour at 4° C. Cell surface-bound virus was completely removed by trypsin (FIG. 15A, lanes 2 through 6). To determine the amount of the surface-bound rAVV, cells were infected with AV.GFP3ori for 1 hour at 4° C. and were not treated with trypsin prior to Hirt DNA extraction. Panel A: lane 8: apical AAV infection; lane 9: apical AAV infection in the presence of LLnL; lane 10: cells were pre-treated with hypotonic EGTA prior to apical infection in the presence of LLnL; lane 11: basolateral infection; lane 12: basolateral infection in the presence of LLnL. FIG. 15B depicts the results of studies evaluating rAAV internalization from either the apical or the basolateral surface in the presence or absence of LLnL, and the internalization from the apical surface after combined treatment with hypotonic EGTA and LLnL. To detect the net amount of the internalized viral genome, all samples in FIG. 15B were treated with trypsin just before Hirt DNA was harvested. The extent of the internalized virus at 4 hours (FIG. 15B, lanes 2 through 6) and 24 hours (FIG. 15B, lanes 8 through 12) incubation at 37° C. after infection is represented by the intensity of the 1.6 kb single stranded viral genome band. FIG. 15B; lane 2; apical AAV infection for 4 hours; lane 3: apical AAV infection in the presence of LLnL for 4 hours; lane 4: cells were pre-treated with hypotonic EGTA prior to apical infection in the presence of LLnL for 4 hours; lane 5: basal infection for 4 hours; lane 6: basolateral infection in the presence of LLnL for 4 hours; lane 8: apical infection for 24 hours; lane 9: apical infection in the presence of LLnL for 24 hours; lane 10: cells were pre-treated with hypotonic EGTA prior to apical infection in the presence of LLnL for 24 hours; lane 11: basolateral infection for 24 hours; lane 12: basolateral infection in the presence of LLnL for 24 hours. […]
Molecular analysis of rAAV viral genomes owing infection of polarized airway epithelial cultures. […] Following binding, the extent of viral internalization was assessed by continuing incubations in the presence of virus at 37° C. for 4–24 hours. […] The 1.6 kb single stranded viral DNA, the 2.7 kb double stranded circular intermediate, and the 4.7 kb double stranded replication from viral genome were detected with a transgene EGFP specific probe at 5×10^6 cpm/ml. […]

[3] = tested on: polarized human bronchial epithelial cells; settings: for rAAV transduction from the basolateral surface with ubiquitin ligase (E3) inhibitors: both dipeptides combined, 2 mM pretreatment 60 minutes, 0.2 mM during 24 hours infection; for rAAV transduction from the apical (mucosal) surface, in words: apical infection, agent at time of infection (LLnL 40 μM)
Procedure: FIGS. 7A and 7B. Proteasome inhibitors differentially augment rAAV transduction from the apical or basolateral surfaces of airway epithelia. The efficiency and time course of rAAV transduction were evaluated in polarized airway epithelial cultures following infection with rAV.GFPori3 (MOI=10,000 particles/cell) in the presence or absence of 40 μM LLnL. Transgene expression was monitored by indirect fluorescence microscopy at the indicted time points by quantifying the mean number of GFP positive cells per 10× field (mean +/−SEM of 3 independent samples for each time point). The effect of LLnL treatment was compared between matched sets of tissue samples at each time point following infection from the apical (FIG. 7A) or basolateral (FIG. 7B) surfaces. The photomicrographs on the right side of each figure illustrate representative 20× fields for the 3 and 22 day post-infection time points.
FIG. 9. Effects of different agents on AAV transduction from the basal surface of polarized bronchial epithelia. Fully differentiated human bronchial airway epithelia were treated with the indicated agents at the time of AAV infection (MOI=10,000 particles/cell) from the basolateral surface. […] Since most of the tested agents (except for hydroxyurea) were dissolved in DMSO, a vehicle control of 1% (vol/vol) DMSO was also performed to exclude the possibility of a non-specific effect. GFP expression was monitored at 48 hours post-infection by counting the number of GFP positive cells per 10 random 10× fields in the culture dishes. The data represent the mean +/−SEM of three independent infections for each tested chemical.
FIG. 10. The proteasome inhibitor LLnL preferentially induces AAV transduction in ciliated cells. The cell types transduced by AAV were examined by alkaline phosphatase staining 3 days following basolateral infection of polarized epithelial cultures with AV.Alkphos infection (MOI=10,000 particles/cell) in the presence of or absence of 40 μM LLnL. […] 8 μm paraffin sections were used to histologically quantify the types of cells transduced. Three classifications were used, ciliated cells (with alkphos expression localized to the apical membrane and cilia), basal cells residing in the lower half of the epithelium with no contact with the lumen, and non-ciliated, columnar cells. Panel C (without LLnL) and D (with LLnL) show representative neutral red counter-stained cross-sections for each condition. The numbers of alkphos stained cells/2000 epithelial cells for the various cell types transduced by AAV are presented in panel E (mean +/−SEM from three independent Millicell insert samples).
FIGS. 11A and 11B. Optimization of LLnL-enhanced transduction in polarized bronchial epithelia. Differentiated transwell cultures were infected with AV.GFP3ori (10,000 particles/cell) from either the basolateral (FIG. 11A) or the apical (FIG. 11B) surface with the indicated treatments involving LLnL and/or EGTA. All infections were carried out for 24 hours and GFP transgene expression was monitored by indirect fluorescent microscopy at the indicated times. Data represent the mean (+/−SEM, N=6) for each experimental condition. Experiments were performed in triplicate on transwells derived from samples obtained from two different patients. […]

[4] = confluent fibroblasts, AV.GFP3ori MOI 1000, 96 hours post-infection, brefeldin A 10 μg/ml, vinblastine 22 μM, cytochalasin B 1 μM, NH4Cl 2 mM, chloroquine 20 μm, LLnL 400 μM, Z-LLL 4 μM

Row | SMILES | rAAV transduction (GFP expression) compared to untreated rAAV infected cells [1, 4] | rAAV transduction from the apical (mucosal) surface, in words [3] | further results
1 | C[C@H]1CCC/C=C/[C@@H]2C[C@H](O)C[C@H]2[C@H](O)/C=C/C(=O)O1 [BFA, brefeldin A] | significant enhancement of rAAV transduction | – | –
2 | O=C(O)CN(CCOCCOCCN(CC(=O)O)CC(=O)O)CC(=O)O [EGTA] | – | – | increase in persistence of AAV DNA [2]: less than 4 fold
3 | C[C@H](NC(=O)[C@@H](N)Cc1cnc[nH]1)C(=O)O [H-His-Ala-OH] (H-His-Ala-OH) | – | – | rAAV transduction from the basolateral surface with ubiquitin ligase (E3) inhibitors [3]: enhanced rAAV transduction
4 | CC(C)C[C@H](N)C(=O)N[C@@H](C)C(=O)O [H-Leu-Ala-OH] (H-Leu-Ala-OH) | – | – | rAAV transduction from the basolateral surface with ubiquitin ligase (E3) inhibitors [3]: enhanced rAAV transduction
5 | Cl.N [NH4Cl] | – | – | rAAV transduction (GFP expression) compared to untreated rAAV infected cells [1]: significantly inhibited rAAV transduction
6 | CC[C@@]1(O)C(=O)OCc2c1cc1n(c2=O)Cc2cc3ccccc3nc2-1 [camptothecin] | – | none of these agents facilitated rAAV transduction from the apical surface | –
7 | CCN(CC)CCCC(C)Nc1ccnc2cc(Cl)ccc12 (stereo not drawn) [chloroquine] | significantly inhibited rAAV transduction | – | –
8 | C=C1[C@@H](C)[C@H]2[C@H](Cc3ccccc3)NC(=O)[C@]23OC(=O)/C=C/[C@H](O)CCC[C@@H](C)C/C=C/[C@H]3[C@@H]1O [cytochalasin B] | significant decrease in rAAV transduction | – | –
9 | COc1cc([C@@H]2c3cc4c(cc3[C@@H](O[C@@H]3O[C@@H]5CO[C@@H](C)O[C@H]5[C@H](O)[C@H]3O)[C@H]3COC(=O)[C@H]23)OCO4)cc(OC)c1O [etoposide] | – | none of these agents facilitated rAAV transduction from the apical surface | –
10 | O=c1c(-c2ccc(O)cc2)coc2cc(O)cc(O)c12 [genistein] | – | none of these agents facilitated rAAV transduction from the apical surface | –
11 | NC(=O)NO [hydroxyurea] | – | none of these agents facilitated rAAV transduction from the apical surface | –
12 | CC[C@]1(O)C[C@@H]2CN(CCc3c([nH]c4ccccc34)[C@@](C(=O)OC)(c3cc4c(cc3OC)N(C)[C@H]3[C@@](O)(C(=O)OC)[C@H](OC(C)=O)[C@]5(CC)C=CCN6CC[C@]43[C@@H]65)C2)C1 [vinblastine, vinblastine sulfate] | little effect on rAAV transduction; also recorded: did not inhibit rAAV-2 transduction | – | –
